Experimental data from patent US9090549B2, “1,4-naphthoquinones derivatives and therapeutic use thereof” (CENTRE NATIONAL DE LA RECHERCHE SCIENTIFIQUE (C.N.R.S.), priority 2008, dated 2015).

Tests used:
[1] = biological target: P. falciparum glutathione reductase (PfGR) (Plasmodium falciparum, UniProt Q94655); assay: 1,4-Naphthoquinone reductase activity of P. falciparum glutathione reductase; format: biochemical; details: for substrate behaviour from catalytic efficiencies kcat/KM: with respect to menadione; for increased catalytic efficiency (kcat/KM) with respect to menadione: relative to menadione
Chain of P. falciparum glutathione reductase (PfGR) (Q94655 2-500 limits assumed): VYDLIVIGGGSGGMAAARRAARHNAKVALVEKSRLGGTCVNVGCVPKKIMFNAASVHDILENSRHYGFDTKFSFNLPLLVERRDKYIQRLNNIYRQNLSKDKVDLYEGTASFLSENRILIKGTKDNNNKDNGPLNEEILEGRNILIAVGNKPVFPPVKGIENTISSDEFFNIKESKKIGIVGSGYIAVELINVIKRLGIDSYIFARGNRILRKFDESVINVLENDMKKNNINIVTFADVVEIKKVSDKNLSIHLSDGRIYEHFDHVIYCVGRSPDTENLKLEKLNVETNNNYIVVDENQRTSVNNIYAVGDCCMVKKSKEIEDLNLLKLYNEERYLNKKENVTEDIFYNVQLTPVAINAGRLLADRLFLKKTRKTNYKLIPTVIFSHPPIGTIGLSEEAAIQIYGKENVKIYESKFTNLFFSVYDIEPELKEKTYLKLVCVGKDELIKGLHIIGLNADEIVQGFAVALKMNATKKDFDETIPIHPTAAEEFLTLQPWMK
Method: The reduction assay mixture consisted of 100 mM potassium phosphate buffer pH 6.9, 200 mM KCl, 1 mM EDTA and 100 μM NADPH in a total volume of 1 mL. 1,4-naphthoquinone reductase activity was determined by recording the initial velocities in the presence of increasing naphthoquinone concentrations (0-300 μM). […] For the determination of KM and Vmax values, the steady-state rates were fitted by using nonlinear regression analysis software (Kaleidagraph) to the Michaelis-Menten equation. From these values, the turnover number kcat and the catalytic efficiency kcat/KM were calculated.

Pf-GHA = Pf-GHA growth inhibition, colorimetric NBT-based lactate dehydrogenase assay; format: cell-based; details: Plasmodium falciparum; 72 h incubation; read-out: IC50 against Pf-GHA
Method: (§1) The IC50 values against Pf-GHA and MRC-5 were determined by using the less sensitive colorimetric NBT-based lactate dehydrogenase assay (Makler et al, Am. J. Trop. Med. Hyg. 1993, 48 (6), 739-741) based on redox-reactions.
In Vitro Antiparasitic Bioassays. The strain is maintained in RPMI-1640 medium supplemented with 0.37 mM hypoxanthine, 25 mM HEPES, 25 mM NaHCO3, and 10% O^+ human serum together with 2-4% washed human O^+ erythrocytes. All cultures and assays are conducted under an atmosphere of 4% CO2, 3% O2 and 93% N2. Assays are performed in 96-well microtiter plates, each well containing 10 μL of the watery compound dilutions together with 190 μL of the malaria parasite inoculum (1% parasitaemia, 2% HCT). After 72 h incubation, plates are frozen and stored at −20° C. After thawing, 20 μL of each well is transferred into another plate together with 100 μL Malstat reagent and 20 μL of 1/1 mixture of PES (phenazine ethosulfate, 0.1 mg/mL) and NBT (Nitro Blue Tetrazolium Grade III, 2 mg/mL). Change in colour is measured spectrophotometrically at 655 nm. The results are expressed as % reduction in parasitaemia compared to control wells. Compounds are treated at 5 concentrations (64-16-4-1 and 0.25 μM or μg/mL).

[2] = system: P. falciparum chloroquine resistant strain K1; assay: K1 growth inhibition, 3H-hypoxanthine assay; format: cell-based, Plasmodium falciparum; details: Plasmodium falciparum, K1; read-out: IC50 against Pf K1
Method: as §1
(§2) Parasite Cultures. […] P. falciparum in vitro culture was carried out using standard protocols (Trager et al, 1976 Science, 193, 673-675) with modifications. Briefly, parasites were maintained in tissue culture flasks in human A Rh+ erythrocytes at 5% hematocrit in RPMI 1640 supplemented with 25 mM HEPES, 24 mM NaHCO3, 0.2% (w/v) glucose, 0.03% L-glutamine, 150 μM hypoxanthine, and 0.5% Albumax II® (Invitrogen) in a 5% CO2/air mixture at 37° C., and the medium was changed daily.
(§3) In Vitro Antiparasitic Bioassays. Drug susceptibility of P. falciparum was studied using a modified method (Cameron et al, 2004 J. Biol. Chem. 279, 31429-31439) of the protocol described previously (Desjardins et al, 1979). All assays included CQ diphosphate (Sigma, UK) as a standard and control wells with untreated infected and uninfected erythrocytes. IC50 values were derived by sigmoidal regression analysis (Microsoft Xlfit™).

[3] = system: P. falciparum chloroquine sensitive strain 3D7; assay: 3D7 growth inhibition, 3H-hypoxanthine assay; format: cell-based, Plasmodium falciparum; details: Plasmodium falciparum, 3D7; read-out: IC50 against Pf 3D7
Method: as §1, §2, §3

[4] = system: P. falciparum multidrug-resistant strain Dd2; assay: Dd2 growth inhibition, 3H-hypoxanthine assay; format: cell-based, Plasmodium falciparum; details: Plasmodium falciparum, DD2, 48 h exposure then 24 h hypoxanthine; read-out: IC50 against Dd2
Method: The IC50 was tested by standard in vitro antiproliferation assays (Desjardins et al, 1979 Antimicrob. Agents Chemother 1979, 16, 710-718). Infected erythrocytes in ring stage (0.5% parasitemia, 2.5% hematocrit) in 96-well plates were exposed to the compounds for 48 h and then to radioactive hypoxanthine for 24 h. The amount of radioactivity in precipitable material served as an index of cell proliferation.

P. berghei ANKA = assay: In vivo 4-day suppressive test in P. berghei-infected mice; design: species or system Plasmodium berghei; details: for activity on 4-day treatment: P. berghei-infected mice
Method: The in vivo tests in the mouse model were done according to a standard protocol (Peters et al Handbook of Animal Models of Infection; Academic Press, London, 1999; pp. 756-771). […] […] For administration, compounds were freshly prepared in 10% DMSO in sterile phosphate-buffered saline the day of use. Two hours post-infection mice received the first treatment by the intraperitoneal route. Mice were further treated on days +1-3. Blood films from tail blood were prepared on day +4, and parasitaemia was determined by microscopic examination of Giemsa-stained blood films. […] […] Mice were treated and levels of parasitemia determined as described.

methemoglobin(Fe3+) = methemoglobin(Fe3+) (Homo sapiens, UniProt P68871+P69905); assay: Redox-cycling of methemoglobin(Fe3+) into oxyhemoglobin(Fe2+) with NADPH/GR system; format: biochemical
Chain of methemoglobin(Fe3+) (P69905 2-142 limits assumed): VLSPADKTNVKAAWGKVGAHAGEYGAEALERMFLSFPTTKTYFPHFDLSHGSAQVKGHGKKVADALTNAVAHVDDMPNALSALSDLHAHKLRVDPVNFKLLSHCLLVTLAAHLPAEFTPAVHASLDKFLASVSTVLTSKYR
Chain of methemoglobin(Fe3+) (P68871 2-147 limits assumed): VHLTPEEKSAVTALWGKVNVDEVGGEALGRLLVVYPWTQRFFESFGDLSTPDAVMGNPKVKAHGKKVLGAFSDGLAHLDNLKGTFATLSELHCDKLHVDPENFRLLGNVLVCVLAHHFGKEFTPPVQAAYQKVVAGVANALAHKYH
Source text: Since FPIX(Fe^2+) is an inhibitor of hematin polymerization, compounds displaying the ability to reduce FPIX(Fe^3+) into FPIX(Fe^2+) might synergistically contribute with GR inhibition to increased oxidative stress in infected-red blood cells. To evaluate the redox-cycling activity of FPIX(Fe^3+) into FPIX(Fe^2+) we set up an assay using the naphthoquinone, the glutathione reductase/NADPH-based system to regenerate the dihydronaphthoquinone continuously and methemoglobin(Fe^3+) (MetHb). The UV-spectrum of MetHb between 300 nm and 700 nm is characterized by a maximal absorbance at 405 nm and a broad band centered at around 630 nm. […] We used 20 μM methylene blue as positive control of this redox-cycling activity.
In an Eppendorf tube containing 6.4 mg MetHb dissolved in 885 μL GR buffer (47 mM potassium phosphate buffer pH 6.9, 200 mM KCl, 100 mM EDTA), 10 μL 20 mM P_TM25 dissolved in DMSO and 100 μL NADPH dissolved in GR buffer were added. The reaction was started by the addition of 5 μL human GR and then incubated at 37° C. In a 1 mL cuvette 20 μL of the reaction mixture was diluted with 980 μL GR buffer and a UV-spectra between 300 nm and 700 nm was done after 5 min, 10 min, 20 min and 30 min incubation time. The final concentrations in the reaction mixture were 100 μM MetHb, 200 μM P_TM25, 400 μM NADPH and […] hGR, final DMSO concentration 1%.
Spectra were measured after 5 min (blue), 10 min (black), 20 min (green) and 30 min (red).

[5] = biological target: T1, human glutathione reductase (hGR) (Homo sapiens, UniProt P00390); assay: Inhibition of human glutathione reductase under steady-state conditions; format: biochemical; details: pH 6.9, 25° C., 1 mM GSSG, 100 μM NADPH
T1 sequence (P00390 44-522): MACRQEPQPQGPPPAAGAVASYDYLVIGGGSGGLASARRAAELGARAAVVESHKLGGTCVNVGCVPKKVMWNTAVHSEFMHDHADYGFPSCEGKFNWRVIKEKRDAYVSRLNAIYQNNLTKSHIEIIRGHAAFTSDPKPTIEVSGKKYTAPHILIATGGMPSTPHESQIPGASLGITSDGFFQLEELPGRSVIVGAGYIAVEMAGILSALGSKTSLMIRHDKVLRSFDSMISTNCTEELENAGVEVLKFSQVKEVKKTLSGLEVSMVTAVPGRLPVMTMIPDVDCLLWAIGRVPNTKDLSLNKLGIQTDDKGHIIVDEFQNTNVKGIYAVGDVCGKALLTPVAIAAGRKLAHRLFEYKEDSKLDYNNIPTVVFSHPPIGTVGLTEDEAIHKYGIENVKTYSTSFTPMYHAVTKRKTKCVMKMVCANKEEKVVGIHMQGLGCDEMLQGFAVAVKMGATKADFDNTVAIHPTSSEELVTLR

Row | Compound | substrate behaviour from catalytic efficiencies kcat/KM [1] | melting point | IC50 (Pf-GHA) [µM] | IC50 [4] [µM] | further results
1 | 2-Methyl-3-(fluoro-benzoyl)-4a,8a-dihydro-[1,4]naphthoquinone [P_TM27] | very effective substrates | – | – | – | Km ([1]; pH 6.9, 100 μM NADPH, 1% DMSO): 56.1 µM
2 | CC1=C(C(=O)c2ccc(O)cc2)C(=O)C2C=CC=CC2C1=O (stereo not shown) [P_TM39, 2-Methyl-3-(4-hydroxy-benzoyl)-4a,8a-dihydro-[1,4]naphthoquinone] | very effective substrates | 184 to 185 °C | < 5 | – | –
3 | CC1=C(Cc2ccc(C)cc2)C(=O)C2C=CC=CC2C1=O (stereo not shown) [P_TM21, 2-Methyl-3-(4-methyl-benzyl)-4a,8a-dihydro-[1,4]naphthoquinone] | – | 225 °C (dec.) | < 5 | 0.791 | IC50 [2]: 0.1 µM; IC50 [3]: 0.27 µM
4 | CC1=C(CC2=CC(=O)C=CC2=O)C(=O)C2C=CC=CC2C1=O (stereo not shown) [P_TM63, 2-(3,6-Dioxo-cyclohexa-1,4-dienylmethyl)-3-methyl-4a,8a-dihydro-[1,4]naphthoquinone] | very effective substrates | – | – | – | increased catalytic efficiency (kcat/KM) with respect to menadione [1]: 17.2 fold
5 | CC1=C(Cc2ccc(C(C)(C)C)cc2)C(=O)C2C=CC=CC2C1=O (stereo not shown) [P_TM43, 2-Methyl-3-(4-tert-butyl-benzyl)-4a,8a-dihydro-[1,4]naphthoquinone] | – | 60 to 61 °C | – | < 0.1 | reduction in parasitaemia (P. berghei ANKA; daily dose of 30 mg/kg, intraperitoneal, 4-day test, mice): 43.4%; activity on 4-day treatment (P. berghei ANKA; intraperitoneal): significant activity
6 | CN(C)c1ccc2nc3ccc(=[N+](C)C)cc-3sc2c1 [Methylene Blue, reference compound] | – | – | – | – | shift of λmax of MetHb (methemoglobin(Fe3+); 20 μM Methylene Blue, same conditions): clear shift
7 | CC1=C(Cc2ccc(Br)cc2)C(=O)C2C=CC=CC2C1=O (stereo not shown) [P_TM24, 2-Methyl-3-(4-bromo-benzyl)-4a,8a-dihydro-[1,4]naphthoquinone] | – | 121 to 122 °C | < 5 | < 0.1 | decrease in parasitaemia (P. berghei ANKA; daily dose of 50 mg/kg ip, 4-day test, mice): 35.6%; activity on 4-day treatment (P. berghei ANKA; intraperitoneal): significant activity
8 | CC1=C(C(=O)c2ccc(Br)cc2)C(=O)C2C(O)=CC=CC2C1=O (stereo not shown) [P_TM47, 3-(4-bromo-benzoyl)-5-hydroxy-2-methyl 4a,8a-dihydro-[1,4]naphthoquinone] | very effective substrates | 161 to 162 °C | – | – | increased catalytic efficiency (kcat/KM) with respect to menadione [1]: 6.3 fold
9 | COc1ccc(C(=O)C2=C(C)C(=O)C3C=CC=CC3C2=O)cc1 (stereo not shown) [P_TM34, 2-Methyl-3-(4-methoxy-benzoyl)-4a,8a-dihydro-[1,4]naphthoquinone] | very effective substrates | 150 to 151 °C | – | – | –
10 | CC1=C(Cc2ccc(C(F)(F)F)cc2)C(=O)c2ccccc2C1=O [P_TM29] | – | – | – | – | IC50 [5]: 1.6 µM
11 | CC1=C(C(=O)c2ccc(Br)cc2)C(=O)C2C=CC=CC2C1=O (stereo not shown) [P_TM25, 2-Methyl-3-(4-bromo-benzoyl)-4a,8a-dihydro-[1,4]naphthoquinone] | very effective substrates | 170 to 171 °C | – | – | concentration at which the shift of maximal absorbance of MetHb from 405 to 410 nm starts being visible (methemoglobin(Fe3+); 100 μM MetHb, NADPH, human GR): 50 µM; redox-cycling of methemoglobin in the presence of GR (methemoglobin(Fe3+); 200 μM P_TM25, 100 μM MetHb, 400 μM NADPH, human GR, 37° C.): can undergo redox-cycling of methemoglobin
12 | CC1=C(Cc2ccc(O)cc2)C(=O)C2C=CC=CC2C1=O (stereo not shown) [P_TM36, 2-Methyl-3-(4-hydroxy-benzyl)-4a,8a-dihydro-[1,4]naphthoquinone] | – | 165 to 166 °C | < 5 | < 0.1 | activity on 4-day treatment (P. berghei ANKA; intraperitoneal): significant activity
13 | CC1=C(C(=O)c2ccc([N+](=O)[O-])cc2)C(=O)C2C=CC=CC2C1=O (stereo not shown) [P_TM40, 2-Methyl-3-(4-nitro-benzoyl)-4a,8a-dihydro-[1,4]naphthoquinone] | very effective substrates | 170 to 171 °C | – | 0.103 | increased catalytic efficiency (kcat/KM) with respect to menadione [1]: 3.9 fold
